Measurements: publication PMC12013366, “In vitro evaluation of the immunogenic potential of gramicidin S and its photocontrolled analogues” (RSC Medicinal Chemistry, 2025)
Like-named read-outs stand apart in the source and are kept apart here. Non-standard residues stand in square brackets, D forms with d. Residues, ends and D or L forms follow the SMILES beside them. Orn = NCCC[C@H](N)C(=O)O

Assays:
Assay type in all cases: cell-based
[1] = Cytotoxicity, two-dimensional (monolayer) assay; details: human, HEK-293 cells, HEK-293 monolayer, necrotic cells by PI/Hoechst 33342 imaging, ± SEM, n=4, read-out: IC50, cytotoxic activity, two-dimensional assay; for IC50 at 10 min: 10 mins incubation; for IC50 at 1 h: 1 h incubation; for IC50 at 24 h: 24 hrs incubation; for IC50 at 72 h: 72 hrs incubation
Procedure: Screening of the cytotoxic activity of compounds in a two-dimensional (2D) format was designed in accordance with the previously obtained data[32] for the HeLa cell line. The cytotoxic action of peptides was quantified in the 96-well plate format at four time points after adding compounds – at 10 min, 1 h, 24 h and 72 h. […] The selected IC50 values for different incubation times are exemplified in Fig. 2.
(§1) Essential experimental details have been previously published by us.[79]
The cells were maintained in a culture till 70–80% confluence was reached and then seeded in a 96-well black-wall transparent-bottom plate (6055302, Revvity) with 200 μL of appropriate medium per well. The seeding density has been previously determined in the optimization experiments for each cell line: 3500 cells per well for 4T1; 20 000 cells per well for HEK-293; 20 000 cells per well for HeLa; 25 000 cells per well for HepG2; 8000 cells per well for LLC; 15 000 cells per well for MDA-MB-231. After 24 h incubation at 37 °C, the medium was removed and 100 μL of fresh medium was added. Two-fold serial dilution of compounds (256–0.5 μM, 11 points for closed forms of photoswitchable peptides; 128–0.25 μM, 11 points for open forms; 64–0.5, 8 points for GS) in the medium was prepared and dispensed in 100 μL per well. The plates were incubated with compounds for 10 min, 1 h, 24 h and 72 h. The staining solution consisting of 25 μM of Hoechst 33342 (62249, Thermo Fisher), 5 μM of propidium iodide (J66764-MC, Thermo Fisher) or ethidium homodimer-1 (E1169, Thermo Fisher), with 10% FBS in DPBS (21600044, Thermo Fisher) was prepared and added to wells in a volume of 50 μL for 20 min. Fluorescence images were acquired using an INCell Analyzer 6500 HS automatic imaging system with 20× objective lens (NA = 0.45) and 16 fields of view (FOV) per well. The numerical data were obtained using INCarta 1.13 and then analysed using GraphPad Prism 10.

[2] = Cytotoxicity, three-dimensional (spheroid) assay; details: human, HEK-293 spheroids, calcein-AM/PI/Hoechst 33342 confocal imaging, Table S3 (with LMB033), ± SEM, n=5, read-out: IC50, cytotoxic activity, three-dimensional (spheroid) assay
Text: (§2) For the experiments with the three-dimensional (3D) cultures, we used a 384-well plate format and applied the protocol introduced by Sirenko et al.,[35] with a few modifications. First, we used the ultra-low adhesion plates to ensure reproducible spheroid formation. Second, we decided to co-stain the cells with calcein-AM to obtain more information on the processes occurring in spheroids upon the addition of cytolytic peptides. Calcein-AM stains metabolically active cells and helps to identify the fraction of necrotic cells that is essential for the accurate determination of the IC50 values (Fig. 3). Three time points of incubation of spheroids with the peptides (10 min, 24 h and 72 h) were chosen for the experiments. The IC50 values and the closed/open isomer activity ratios (Table 2) were calculated, as in the monolayer cell culture experiments.
as §1
(§3) The cells were maintained identically to a 2D cell culture protocol. After counting, the cells were seeded in 50 μL of medium in an ultralow attachment U-bottom black-wall 384-well plate (3830, Corning). The seeding density was chosen to obtain spheroids after 48 h of incubation that are compact enough to fit into 20× objective field of view (<800–1000 μm in diameter) after incubation with compounds. We seeded 2000 cells per well for 4T1 and 1000 cells per well for HEK-293, HeLa, HepG2, LLC and MDA-MB-231. After seeding, the plate was centrifuged at 40 g for 30 s and additionally shaken at 250 rpm for 1 min to shake all the cells off the walls of a well. After 48 h, the compounds were dispensed in 20 μL of medium (500, 100, 50, 5 and 1 μM for closed peptide photoforms; 100, 50, 10, 1 and 0.5 μM for open photoforms and GS). At 10 min, 24 h and 72 h post addition of compounds, the staining solution consisting of 112.5 μM of Hoechst 33342, 4.5 μM of calcein-AM (C1430, Thermo Fisher), 13.5 μM of propidium iodide and 10% of FBS in DPBS was added in 20 μL for 2 h. The fluorescent imaging was conducted in the confocal mode with a 20× objective lens and z-stack of 12–15 images with a 10 μm step. The collected data were processed using INCarta 1.13 and analyzed using GraphPad Prism 10.

HeLa spheroids = assay: Cytotoxicity, three-dimensional (spheroid) assay; details: human
Text: as §2, §1, §3

[3] = 2D monolayer, Table S1 series (with LMB033)
[4] = monolayer (2D), Table S2 series (with LMB002)

For `CC(C)C[C@@H]1NC(=O)[C@H](CCCN)NC(=O)[C@H](C(C)C)NC(=O)[C@@H]2CCCN2C(=O)[C@@H](Cc2ccccc2)NC(=O)[C@H](CC(C)C)NC(=O)[C@H](CCCN)NC(=O)[C@H](C(C)C)NC(=O)[C@@H]2CCCN2C(=O)[C@@H](Cc2ccccc2)NC1=O` [Gramicidin S, gramicidin S] (cyclo(V[Orn]L[dF]PV[Orn]L[dF]P)), which IC50 at 10 min [1, 3] is on record?
Its IC50 at 10 min is 12.9 ± 0.4 µM.

And the IC50 at 1 h [1, 3]?
The IC50 at 1 h was 11.6 ± 0.1 µM.

What about the IC50 at 24 h [1, 3] of the same molecule?
The IC50 at 24 h was 8.3 ± 0.2 µM.

What about the IC50 at 72 h [1, 3] of the same molecule?
The IC50 at 72 h was 8.4 ± 0.7 µM.

What about the IC50 at 10 min [1, 4] of the same molecule?
The IC50 at 10 min was 15.4 ± 0.1 µM.

What about the IC50 at 1 h [1, 4] of the same molecule?
Its IC50 at 1 h is 12.7 ± 0.2 µM.

What about the IC50 at 24 h [1, 4] of the same molecule?
Its IC50 at 24 h is 10.4 ± 0.1 µM.

And the IC50 at 72 h [1, 4]?
Its IC50 at 72 h is 11.1 ± 0.1 µM.

And the IC50 at 10 min ([2]; 10 mins incubation)?
The IC50 at 10 min was 14.3 ± 11.6 µM.

And the IC50 at 24 h ([2]; 24 hrs incubation)?
Its IC50 at 24 h is 12.9 ± 1.1 µM.

What about the IC50 at 72 h ([2]; 72 hrs incubation) of the same molecule?
The IC50 at 72 h was 9 ± 1.1 µM.

And the IC50 (HeLa spheroids; 10 min)?
The IC50 was 2.9 ± 1.5 µM.

And the IC50 (HeLa spheroids; 24 h)?
The IC50 was 2.9 ± 1.6 µM.
